Assay results published in ChEMBL document CHEMBL1128363, “Design, synthesis, biology, and conformations of bicyclic alpha-melanotropin analogues” (J Med Chem, 1995).
Active and inactive are the calls of the source. The calls are words filed in the database; no cut-off is given here. Where a SMILES comes first, the peptide text is derived from it. [ ]: non-standard residue; d: D form.

How the values were obtained:
Assay type in all cases: functional
frog [1] = assay: Potency measured in frog where (+) indicates peptide is long acting.
[2] = Activity expressed as EC50 was measured in frog.
[3] = Activity expressed as EC50 was measured in lizard.
lizard [4] = assay: Potency of compound was measured in lizard where (+) indicates peptide is prolonged acting.
frog [5] = assay: Potency measured in frog where (-) indicates peptide is not long acting.
lizard [6] = assay: Potency of compound was measured in lizard where (-) indicates peptide is not prolonged acting.
frog [7] = assay: Potency of compound was measured in frog
lizard [8] = assay: Potency measured in lizard where (+) indicates peptide is long acting and (-) indicates peptide is not long acting.
frog [9] = assay: Potency of compound was measured in frog; Inactive
[10] = Activity of compound expressed as EC50 was measured in frog; Inactive
lizard [11] = assay: Potency of compound was measured in lizard; Inactive
[12] = Activity of compound expressed as EC50 was measured in lizard; Inactive
frog [13] = assay: Potency of compound was measured in frog where (+) indicates peptide is prolonged acting and (-) indicates peptide is not prolonged acting.

Row | EC50 [2] | EC50 [3] | Structure (SMILES) | Potency (frog [5]) | Potency (lizard [8]) | also measured
1 | 10000 nM | 1000 nM | CC(=O)N[C@H](Cc1ccccc1)C(=O)N[C@@H](CCCN=C(N)N)C(=O)N[C@@H](Cc1c[nH]c2ccccc12)C(N)=O (Ac-[dF]-Arg-Trp-NH2) | – | – | Potency (frog [1]): 1e-05; Potency (lizard [4]): 0.001
2 | 150 nM | 10 nM | CC(=O)N[C@@H](Cc1cnc[nH]1)C(=O)N[C@H](Cc1ccccc1)C(=O)N[C@@H](CCCNC(=N)N)C(=O)N[C@@H](Cc1c[nH]c2ccccc12)C(N)=O | 0.001 | – | Potency (lizard [6]): 0.1
3 | 0.1 nM | – | CCCC[C@H](NC(C)=O)C(=O)N[C@@H]1CC(=O)NCCCC[C@H](C(N)=O)NC(=O)C(C)(C)NC(=O)[C@@H](Cc2c[nH]c3ccccc23)NC(=O)[C@H](CCCN=C(N)N)NC(=O)[C@@H](Cc2ccccc2)NC(=O)[C@@H](Cc2c[nH]cn2)NC1=O | – | – | Potency (frog [7]): 1
4 | 6 nM | 33 nM | CC(=O)N[C@@H]1CSSC[C@H]2NC(=O)[C@@H](Cc3c[nH]c4ccccc34)NC(=O)[C@H](CCCN=C(N)N)NC(=O)[C@H](Cc3ccccc3)NC(=O)[C@H](Cc3c[nH]cn3)NC(=O)[C@@H](CC(=O)NCCCC[C@@H](C(N)=O)NC2=O)NC1=O | – | 0.03 | Potency (frog [13]): 0.018
5 | 33 nM | 33 nM | CC(=O)N[C@@H]1CSSC[C@@H](C(N)=O)NC(=O)[C@@H]2CCCCNC(=O)C[C@@H](NC1=O)C(=O)N[C@@H](Cc1c[nH]cn1)C(=O)N[C@H](Cc1ccccc1)C(=O)N[C@@H](CCCN=C(N)N)C(=O)N[C@H](Cc1c[nH]c3ccccc13)C(=O)N2 | – | 0.03 | Potency (frog [1]): 0.003

More lines, now with the values behind:

Row | Structure (SMILES) | EC50 [2] | EC50 [3] | Potency (frog [5]) | Potency (lizard [8]) | also measured
6 | CC(=O)N[C@@H]1CSSC[C@H]2NC(=O)[C@@H](Cc3c[nH]c4ccccc34)NC(=O)[C@H](CCCN=C(N)N)NC(=O)C(Cc3ccccc3)NC(=O)[C@H](Cc3c[nH]cn3)NC(=O)[C@@H](CC(=O)NCCCC[C@H](C(=O)N3CCC[C@@H]3C(=O)N[C@H](C(N)=O)C(C)C)NC2=O)NC1=O (stereo in doubt) | 2.5 nM | 33 nM | – | 0.03 | Potency (frog [1]): 0.04
7 | CC(=O)N[C@@H](Cc1c[nH]cn1)C(=O)N[C@H](Cc1ccccc1)C(=O)N[C@@H](CCCN=C(N)N)C(N)=O | – | – | – | – | Potency (frog [9]): inactive; EC50 [10]: Not Active; Potency (lizard [11]): inactive; EC50 [12]: Not Active
8 | CC(=O)N[C@@H]1CSSC[C@H](C(=O)N[C@H](CCCCN)C(N)=O)NC(=O)[C@@H](Cc2c[nH]c3ccccc23)NC(=O)[C@H](CCCN=C(N)N)NC(=O)C(Cc2ccccc2)NC(=O)[C@H](Cc2c[nH]cn2)NC(=O)[C@@H](CCC(=O)O)NC1=O (stereo in doubt) | 0.04 nM | 0.3 nM | 2.5 | – | Potency (lizard [6]): 3
9 | N=C(N)NCCC[C@H]1NC(=O)[C@@H](Cc2ccccc2)NC(=O)[C@@H](Cc2c[nH]cn2)NC(=O)CNC(=O)CNC(=O)[C@H](Cc2c[nH]c3ccccc23)NC1=O | 1200 nM | – | – | – | –
10 | CC(=O)N[C@@H](Cc1c[nH]cn1)C(=O)N[C@@H](Cc1ccccc1)C(=O)N[C@@H](CCCN=C(N)N)C(=O)N[C@@H](Cc1c[nH]c2ccccc12)C(N)=O | 30000 nM | 15000 nM | 5e-06 | – | Potency (lizard [6]): 0.0014
11 | CCCC[C@H](NC(C)=O)C(=O)NC1CCCNC(=O)CC[C@H](C(=O)N[C@@H](Cc2c[nH]c3ccccc23)C(=O)NCC(=O)N[C@@H](CCCCN)C(N)=O)NC(=O)[C@@H](Cc2ccccc2)NC(=O)[C@@H](Cc2c[nH]cn2)NC1=O (stereo in doubt) | 1000 nM | – | 0.001 | – | Potency (lizard [11]): inactive
12 | CC(=O)N[C@@H]1CSSC[C@H]2NC(=O)[C@@H](Cc3c[nH]c4ccccc34)NC(=O)[C@H](CCCN=C(N)N)NC(=O)[C@H](Cc3ccccc3)NC(=O)[C@H](Cc3c[nH]cn3)NC(=O)[C@@H](CCC(=O)NCCCC[C@@H](C(N)=O)NC2=O)NC1=O | 28 nM | 400 nM | 0.0035 | 0.0025 | –
